Reference: ChEMBL document CHEMBL4814071, “Synthesis and antibacterial study of cell-penetrating peptide conjugated trifluoroacetyl and thioacetyl lysine modified peptides” (Eur J Med Chem, 2021)
Where a name gives a salt, the structure may show the parent alone. Blank lines part the entries; values can stand above or below the molecule they belong to. Active and inactive are the calls of the source. The rule behind the calls is not given here. *1 amine or outer side, *2 acyl side, *3 side chain or, on linkers, in order; H or OH if unused. Where a SMILES comes first, the peptide text is derived from it. Bridges are numbered along the chain shown (N, C = ends). Side-chain parts run from the residue outwards. [ ]: non-standard residue; d: D form. The star is where a group is joined. NH(2-Me-phenyl) = Cc1ccccc1N*; X1 = CC[C@H](C)CCCCC(=O)*; Dab = NCC[C@H](N)C(=O)O; CO = O=C([*:1])[*:2]; Tfa = O=C(C(F)(F)F)*

Assays:
Staphylococcus aureus [1] = assay: Synergistic antibacterial activity against Staphylococcus aureus assessed as fractional inhibitory concentration index incubated for 24 hrs in presence of streptomycin; assay type: functional
Lipid bilayer [2] = assay: Binding affinity to bacterial inner membrane mimic POPE/POPG (3:1) LUVs assessed as increase in intensity by one-dimensional 19F NMR based analysis
Lipid bilayer [3] = assay: Binding affinity to mammalian membrane mimic DOPC/40% cholesterol assessed as calcein leakage at 20 uM by fluorescence based assay; assay type: ADME
Pseudomonas aeruginosa [4] = assay: Potentiation of polymyxin B-induced antibacterial activity against Pseudomonas aeruginosa assessed as polymyxin B MIC incubated for 24 hrs by microplate reader method; assay type: functional
Staphylococcus aureus [5] = assay: Potentiation of streptomycin-induced antibacterial activity against Staphylococcus aureus assessed as streptomycin MIC incubated for 24 hrs by microplate reader method; assay type: functional
Escherichia coli [6] = assay: Potentiation of polymyxin B-induced antibacterial activity against Escherichia coli assessed as polymyxin B MIC incubated for 24 hrs by microplate reader method; assay type: functional
[7] = Induction of yeast killing at 50 uM incubated for 72 hrs in presence of Ura3 and absence of FOA by absorbance based analysis; details: saccharomyces cerevisiae
[8] = target: NAD-dependent histone deacetylase SIR2 (Saccharomyces cerevisiae S288c) (UniProt P06700); assay: Inhibition of yeast sirtuin2-mediated Ura3 transcriptional silencing at telomeric locus assessed as yeast killing at 50 uM incubated for 72 hrs in presence of FOA by absorbance based analysis
Escherichia coli [9] = assay: Antibacterial activity against Escherichia coli assessed as reduction in microbial growth after 24 hrs in presence of polymyxin B by microplate reader method; assay type: functional
Staphylococcus aureus [10] = assay: Antibacterial activity against Staphylococcus aureus assessed as reduction in microbial growth after 24 hrs in presence of streptomycin by microplate reader method; assay type: functional
Staphylococcus aureus [11] = assay: Antibacterial activity against Staphylococcus aureus assessed as reduction in microbial growth after 24 hrs by microplate reader method; assay type: functional
Escherichia coli [12] = assay: Antibacterial activity against Escherichia coli assessed as reduction in microbial growth after 24 hrs by microplate reader method; assay type: functional
Pseudomonas aeruginosa [13] = assay: Antibacterial activity against Pseudomonas aeruginosa assessed as reduction in microbial growth after 24 hrs by microplate reader method; assay type: functional
Staphylococcus aureus [14] = assay: Antibiofilm activity against Staphylococcus aureus assessed as biofilm eradication incubated for 24 hrs by crystal violet staining assay; assay type: functional
Escherichia coli [15] = assay: Antibiofilm activity against Escherichia coli assessed as biofilm eradication incubated for 24 hrs by crystal violet staining assay; assay type: functional
Staphylococcus aureus [16] = assay: Antibiofilm activity against Staphylococcus aureus assessed as inhibition of biofilm formation incubated for 48 hrs by crystal violet staining assay; assay type: functional
Escherichia coli [17] = assay: Antibiofilm activity against Escherichia coli assessed as as inhibition of biofilm formation incubated for 48 hrs by crystal violet staining assay; assay type: functional
Cell membrane [18] = assay: Disruption of membrane integrity in Escherichia coli at 2 times MIC measured after 20 mins by SEM analysis
Cell membrane [19] = assay: Disruption of membrane integrity in Staphylococcus aureus at 2 times MIC measured after 20 mins by SEM analysis
Cell membrane [20] = assay: Disruption of membrane integrity in Escherichia coli at 2 times MIC by TEM analysis
Escherichia coli [21] = assay: Synergistic antibacterial activity against Escherichia coli assessed as fractional inhibitory concentration index incubated for 24 hrs in presence of Polymyxin B; assay type: functional
Pseudomonas aeruginosa [22] = assay: Synergistic antibacterial activity against Pseudomonas aeruginosa assessed as fractional inhibitory concentration index incubated for 24 hrs in presence of Polymyxin B; assay type: functional
Lipid bilayer [23] = assay: Binding affinity to bacterial inner membrane mimic DOPE/DOPG (3:1) large unilamellar vesicles assessed as calcein leakage at 2.5 uM by fluorescence based assay
Lipid bilayer [24] = assay: Binding affinity to bacterial inner membrane mimic DOPE/DOPG (3:1) large unilamellar vesicles assessed as calcein leakage at 20 uM by fluorescence based assay
[25] = Hemolytic activity against mouse RBC at 1000 uM measured after 1 hr by microplate reader analysis; assay type: cell-based, Erythrocyte; details: mouse red blood cells (erythrocytes), read-out: Activity
HeLa = assay: Cytotoxicity against human HeLa cells assessed as reduction in cell viability incubated for 48 hrs by MTT assay; assay type: cell-based
BE(2)-C = assay: Cytotoxicity against human BE(2)-C cells assessed as reduction in cell viability incubated for 48 hrs by MTT assay; assay type: cell-based
Staphylococcus aureus [26] = assay: Antibiofilm activity against Staphylococcus aureus assessed as biofilm eradication at 2XMBEC incubated for 12 hrs by SYTO9/PI staining based microscopic analysis; assay type: functional, organism-based
Escherichia coli [27] = assay: Antibiofilm activity against Escherichia coli assessed as biofilm eradication at 2XMBEC incubated for 12 hrs by SYTO9/PI staining based microscopic analysis; assay type: functional, organism-based
Cell membrane [28] = assay: Disruption of membrane integrity in Staphylococcus aureus at 2 times MIC by TEM analysis
Cell membrane [29] = assay: Disruption of membrane integrity in Escherichia coli assessed as cellular leakage at 2 times MIC by TEM analysis
[30] = Inhibition of transcriptional machinery using Puc19-lacCONS plasmid DNA and Escherichia coli RNA polymerase-sigma70 holoenzyme at 10 uM incubated for 35 mins followed by NTP addition for 30 mins by spectrofluorometer analysis; assay type: functional; details: time 65.0 min
Pseudomonas aeruginosa [31] = assay: Antibacterial activity against Pseudomonas aeruginosa assessed as reduction in microbial growth after 24 hrs in presence of polymyxin B by microplate reader method; assay type: functional
Staphylococcus aureus [32] = assay: Potentiation of streptomycin-induced antibacterial activity against Staphylococcus aureus assessed as fold change in streptomycin MIC incubated for 24 hrs by microplate reader method; assay type: functional

Chain of NAD-dependent histone deacetylase SIR2 (Saccharomyces cerevisiae S288c) (P06700 whole entry): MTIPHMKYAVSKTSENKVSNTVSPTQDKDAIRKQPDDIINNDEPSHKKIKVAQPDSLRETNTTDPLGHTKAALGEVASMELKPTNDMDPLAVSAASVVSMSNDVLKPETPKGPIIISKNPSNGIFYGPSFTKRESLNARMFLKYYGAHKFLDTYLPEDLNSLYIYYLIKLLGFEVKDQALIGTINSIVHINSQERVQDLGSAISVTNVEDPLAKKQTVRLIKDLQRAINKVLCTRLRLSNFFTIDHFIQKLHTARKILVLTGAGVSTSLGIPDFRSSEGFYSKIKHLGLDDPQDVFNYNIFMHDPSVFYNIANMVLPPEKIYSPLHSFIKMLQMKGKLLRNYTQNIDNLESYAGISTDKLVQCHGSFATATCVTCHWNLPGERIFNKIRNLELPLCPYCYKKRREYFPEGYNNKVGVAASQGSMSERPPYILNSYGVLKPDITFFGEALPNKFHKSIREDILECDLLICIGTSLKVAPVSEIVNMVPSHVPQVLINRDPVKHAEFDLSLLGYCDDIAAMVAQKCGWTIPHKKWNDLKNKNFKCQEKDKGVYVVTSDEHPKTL

Activity (Lipid bilayer [2]): Active
Activity (Lipid bilayer [3]): < 20%
MIC (Pseudomonas aeruginosa [4]): 0.05 µM
MIC (Staphylococcus aureus [5]): 0.38 µM
MIC (Escherichia coli [6]): 0.1 µM
MIC (Escherichia coli [9]): 0.63 µM
MIC (Staphylococcus aureus [10]): 0.05 µM
MIC (Staphylococcus aureus [11]): 0.2 µM
MIC (Escherichia coli [12]): 1.5 µM
MIC (Pseudomonas aeruginosa [13]): 25 µM
Activity (Cell membrane [18]): Active
Activity (Cell membrane [19]): Active
Activity (Cell membrane [20]): Active
Activity (Lipid bilayer [23]): 90%
Activity (Lipid bilayer [24]): Active
Activity (Cell membrane [28]): Active
Activity (Cell membrane [29]): Active
MIC (Pseudomonas aeruginosa [31]): 12.5 µM
Structure (SMILES): CC(=O)N[C@@H](Cc1ccc(O)cc1)C(=O)NCC(=O)N[C@@H](CCCNC(=N)N)C(=O)N[C@@H](CCCCN)C(=O)N[C@@H](CCCCN)C(=O)N[C@@H](CCCNC(=N)N)C(=O)N[C@@H](CCCNC(=N)N)C(=O)N[C@@H](CCC(N)=O)C(=O)N[C@@H](CCCNC(=N)N)C(=O)N[C@@H](CCCNC(=N)N)C(=O)N[C@@H](CCCNC(=N)N)C(=O)NCC(=O)NCC(=O)NCC(=O)N[C@@H](CCCCN)C(=O)NCC(=O)N[C@@H](CC(C)C)C(=O)N[C@@H](CCCNC(=N)N)C(=O)N[C@@H](CCCCNC(=O)C(F)(F)F)C(=O)N[C@@H](Cc1ccccc1)C(=O)NCC(=O)N[C@@H](C)C(=O)N[C@@H](CCCCN)C(=O)N[C@@H](CCCNC(=N)N)C(=O)N[C@@H](Cc1cnc[nH]1)C(=O)N[C@@H](CCCNC(=N)N)C(=O)N[C@@H](CS)C(=O)O (Ac-YGRKKRRQRRRGGGKGLRK(Tfa)FGAKRHRC-OH)
fractional inhibitory concentration index (FICI) (Staphylococcus aureus [1]): 0.22
Activity [7]: Toxic
inhibition [8]: Active
MBEC (Staphylococcus aureus [14]): 3.2 µM
MBEC (Escherichia coli [15]): 62.5 µM
MBIC (Staphylococcus aureus [16]): 0.8 µM
MBIC (Escherichia coli [17]): 15.6 µM
fractional inhibitory concentration index (FICI) (Escherichia coli [21]): 0.73
fractional inhibitory concentration index (FICI) (Pseudomonas aeruginosa [22]): 0.42
hemolysis at 1 h, 1000 µM [25]: < 5%
IC50 (HeLa): 20.2 µM
IC50 (BE(2)-C): 17.4 µM
Activity (Staphylococcus aureus [26]): Active
Activity (Escherichia coli [27]): Active
inhibition [30]: 100%
fold change (FC) (Staphylococcus aureus [32]): 6

MIC (Staphylococcus aureus [11]): 0.2 µM
MIC (Escherichia coli [12]): 1.5 µM
MIC (Pseudomonas aeruginosa [13]): 25 µM
Structure (SMILES): CC(=O)N[C@@H](Cc1ccc(O)cc1)C(=O)NCC(=O)N[C@@H](CCCNC(=N)N)C(=O)N[C@@H](CCCCN)C(=O)N[C@@H](CCCCN)C(=O)N[C@@H](CCCNC(=N)N)C(=O)N[C@@H](CCCNC(=N)N)C(=O)N[C@@H](CCC(N)=O)C(=O)N[C@@H](CCCNC(=N)N)C(=O)N[C@@H](CCCNC(=N)N)C(=O)N[C@@H](CCCNC(=N)N)C(=O)NCC(=O)NCC(=O)NCC(=O)N[C@@H](CCCCN)C(=O)NCC(=O)N[C@@H](CC(C)C)C(=O)N[C@@H](CCCNC(=N)N)C(=O)N[C@@H](CCCCNC(=O)Nc1ccccc1C)C(=O)N[C@@H](Cc1ccccc1)C(=O)NCC(=O)N[C@@H](C)C(=O)N[C@@H](CCCCN)C(=O)N[C@@H](CCCNC(=N)N)C(=O)N[C@@H](Cc1cnc[nH]1)C(=O)N[C@@H](CCCNC(=N)N)C(=O)N[C@@H](CS)C(=O)O (Ac-YGRKKRRQRRRGGGKGLRK([CO-NH(2-Me-phenyl)])FGAKRHRC-OH)

MIC (Escherichia coli [12]): 0.09 µM
MIC (Pseudomonas aeruginosa [13]): 0.15 µM
Structure (SMILES): CC[C@H](C)CCCCC(=O)N[C@@H](CCN)C(=O)N[C@H](C(=O)N[C@@H](CCN)C(=O)N[C@H]1CCNC(=O)[C@H]([C@@H](C)O)NC(=O)[C@H](CCN)NC(=O)[C@H](CCN)NC(=O)[C@H](CC(C)C)NC(=O)[C@@H](Cc2ccccc2)NC(=O)[C@H](CCN)NC1=O)[C@@H](C)O (X1-[Dab]T[Dab][Dab][Dab][dF]L[Dab][Dab]T; lactam 4-C)

MIC (Staphylococcus aureus [11]): 2.2 µM
Structure (SMILES): CN[C@@H]1[C@H](O[C@H]2[C@H](O[C@H]3[C@H](O)[C@@H](O)[C@H](N=C(N)N)[C@@H](O)[C@@H]3N=C(N)N)O[C@@H](C)[C@]2(O)C=O)O[C@@H](CO)[C@H](O)[C@H]1O [STREPTOMYCIN]
